From publication PMC8699473, “An Easily Expandable Multi-Drug LC-MS Assay for the Simultaneous Quantification of 57 Oral Antitumor Drugs in Human Plasma” (Cancers, 2021)

Assay: Long-term stability in spiked pooled human plasma

| Structure (SMILES) | Long-term stability, 1 month, -20°C Accuracy [%] (validation standard 2xLLOV) | Long-term stability, 1 month, -80°C Accuracy [%] (validation standard 2xLLOV) | Long-term stability, 2 month, -20°C Accuracy [%] (validation standard 2xLLOV) | Long-term stability, 2 month, -80°C Accuracy [%] (validation standard 2xLLOV) | Long-term stability, 3 month, -20°C Accuracy [%] (validation standard 2xLLOV) | Long-term stability, 3 month, -80°C Accuracy [%] (validation standard 2xLLOV) | Long-term stability, 6 weeks, 4°C, without daylight Accuracy [%] (validation standard 2xLLOV) | Long-term stability, 1 month, -20°C Accuracy [%] (validation standard LLOV) | Long-term stability, 1 month, -80°C Accuracy [%] (validation standard LLOV) | Long-term stability, 2 month, -20°C Accuracy [%] (validation standard LLOV) | Long-term stability, 2 month, -80°C Accuracy [%] (validation standard LLOV) | Long-term stability, 3 month, -20°C Accuracy [%] (validation standard LLOV) | Long-term stability, 3 month, -80°C Accuracy [%] (validation standard LLOV) | Long-term stability, 1 month, -20°C Accuracy [%] (validation standard MOV) | Long-term stability, 1 month, -80°C Accuracy [%] (validation standard MOV) | Long-term stability, 2 month, -20°C Accuracy [%] (validation standard MOV) | Long-term stability, 2 month, -80°C Accuracy [%] (validation standard MOV) | Long-term stability, 3 month, -20°C Accuracy [%] (validation standard MOV) | Long-term stability, 3 month, -80°C Accuracy [%] (validation standard MOV) | Long-term stability, 6 weeks, 4°C, without daylight Accuracy [%] (validation standard MOV) | further results |
| --- | --- | --- | --- | --- | --- | --- | --- | --- | --- | --- | --- | --- | --- | --- | --- | --- | --- | --- | --- | --- | --- |
| COC(=O)N[C@@H](C)CNc1nccc(-c2cn(C(C)C)nc2-c2cc(Cl)cc(NS(C)(=O)=O)c2F)n1 [Encorafenib] | 100.7% | 93.5% | 111.7% | 104.1% | 97.4% | 95.2% | 95.2% | 84.2% | 88.1% | 103.4% | 93.1% | 96.1% | 94.9% | 99.0% | 97.1% | 102.3% | 104.9% | 101.8% | 100.8% | 109.2% | Long-term stability, 6 weeks, 4°C, without daylight Accuracy [%] (validation standard LLOV): 81.0%; Long-term stability, 1 month, -20°C Accuracy [%] (validation standard ULOV): 99.1%; Long-term stability, 1 month, -80°C Accuracy [%] (validation standard ULOV): 95.7%; Long-term stability, 2 month, -20°C Accuracy [%] (validation standard ULOV): 104.0%; Long-term stability, 2 month, -80°C Accuracy [%] (validation standard ULOV): 101.8%; Long-term stability, 3 month, -20°C Accuracy [%] (validation standard ULOV): 100.7%; Long-term stability, 3 month, -80°C Accuracy [%] (validation standard ULOV): 99.0%; Long-term stability, 6 weeks, 4°C, without daylight Accuracy [%] (validation standard ULOV): 101.7% |
| Cn1cnc2c(F)c(Nc3ccc(Br)cc3F)c(C(=O)NOCCO)cc21 [Binimetinib] | 94.8% | 97.4% | 105.7% | 106.4% | 99.5% | 104.4% | 95.3% | 103.4% | 106.3% | 116.3% | 124.3% | 105.4% | 104.6% | 92.3% | 94.4% | 95.9% | 96.6% | 97.9% | 98.7% | 109.9% | Long-term stability, 6 weeks, 4°C, without daylight Accuracy [%] (validation standard LLOV): 104.1%; Long-term stability, 1 month, -20°C Accuracy [%] (validation standard ULOV): 99.6%; Long-term stability, 1 month, -80°C Accuracy [%] (validation standard ULOV): 97.2%; Long-term stability, 2 month, -20°C Accuracy [%] (validation standard ULOV): 99.2%; Long-term stability, 2 month, -80°C Accuracy [%] (validation standard ULOV): 101.1%; Long-term stability, 3 month, -20°C Accuracy [%] (validation standard ULOV): 98.9%; Long-term stability, 3 month, -80°C Accuracy [%] (validation standard ULOV): 102.6%; Long-term stability, 6 weeks, 4°C, without daylight Accuracy [%] (validation standard ULOV): 99.7% |
| CO[C@@H]1[C@H](N(C)C(=O)c2ccccc2)C[C@H]2O[C@]1(C)n1c3ccccc3c3c4c(c5c6ccccc6n2c5c31)C(=O)NC4 [Midostaurin] | 105.5% | 106.8% | 106.0% | 108.5% | 97.1% | 106.8% | 94.2% | 109.4% | 106.4% | 106.5% | 101.2% | 102.8% | 112.8% | 105.8% | 108.1% | 113.7% | 116.3% | 102.0% | 102.9% | 103.5% | Long-term stability, 6 weeks, 4°C, without daylight Accuracy [%] (validation standard LLOV): 102.3%; Long-term stability, 1 month, -20°C Accuracy [%] (validation standard ULOV): 107.3%; Long-term stability, 1 month, -80°C Accuracy [%] (validation standard ULOV): 103.4%; Long-term stability, 2 month, -20°C Accuracy [%] (validation standard ULOV): 118.6%; Long-term stability, 2 month, -80°C Accuracy [%] (validation standard ULOV): 111.4%; Long-term stability, 3 month, -20°C Accuracy [%] (validation standard ULOV): 93.8%; Long-term stability, 3 month, -80°C Accuracy [%] (validation standard ULOV): 107.0%; Long-term stability, 6 weeks, 4°C, without daylight Accuracy [%] (validation standard ULOV): 97.3% |
| CNC(=O)c1ccc(N2C(=S)N(c3ccc(C#N)c(C(F)(F)F)c3)C(=O)C2(C)C)cc1F [Enzalutamide] | 92.7% | 87.8% | 91.5% | 92.9% | 87.1% | 89.0% | 96.8% | 92.6% | 82.3% | 90.2% | 94.8% | 88.7% | 88.4% | 90.3% | 90.6% | 92.8% | 95.7% | 91.6% | 90.6% | 105.1% | Long-term stability, 6 weeks, 4°C, without daylight Accuracy [%] (validation standard LLOV): 97.2%; Long-term stability, 1 month, -20°C Accuracy [%] (validation standard ULOV): 85.8%; Long-term stability, 1 month, -80°C Accuracy [%] (validation standard ULOV): 86.1%; Long-term stability, 2 month, -20°C Accuracy [%] (validation standard ULOV): 90.8%; Long-term stability, 2 month, -80°C Accuracy [%] (validation standard ULOV): 90.3%; Long-term stability, 3 month, -20°C Accuracy [%] (validation standard ULOV): 87.7%; Long-term stability, 3 month, -80°C Accuracy [%] (validation standard ULOV): 87.3%; Long-term stability, 6 weeks, 4°C, without daylight Accuracy [%] (validation standard ULOV): 95.0% |
| CS(=O)(=O)CCNCc1ccc(-c2ccc3ncnc(Nc4ccc(OCc5cccc(F)c5)c(Cl)c4)c3c2)o1 [Lapatinib] | 91.4% | 92.2% | 84.4% | 102.3% | 72.0% | 96.3% | 34.8% | 85.5% | 91.6% | 80.7% | 98.5% | 55.4% | 95.3% | 95.3% | 97.6% | 93.7% | 103.0% | 78.1% | 101.0% | 101.1% | Long-term stability, 6 weeks, 4°C, without daylight Accuracy [%] (validation standard LLOV): 28.2%; Long-term stability, 1 month, -20°C Accuracy [%] (validation standard ULOV): 96.6%; Long-term stability, 1 month, -80°C Accuracy [%] (validation standard ULOV): 94.5%; Long-term stability, 2 month, -20°C Accuracy [%] (validation standard ULOV): 101.5%; Long-term stability, 2 month, -80°C Accuracy [%] (validation standard ULOV): 100.9%; Long-term stability, 3 month, -20°C Accuracy [%] (validation standard ULOV): 95.4%; Long-term stability, 3 month, -80°C Accuracy [%] (validation standard ULOV): 96.7%; Long-term stability, 6 weeks, 4°C, without daylight Accuracy [%] (validation standard ULOV): 99.9% |
| Cc1[nH]c2ccccc2c1CCNCc1ccc(/C=C/C(=O)NO)cc1 [Panobinostat] | 52.2% | 59.0% | 66.3% | 107.6% | 57.5% | 67.6% | 11.4% | 38.2% | 33.7% | 21.2% | 29.9% | 8.2% | 34.0% | 82.0% | 84.1% | 75.7% | 87.5% | 66.1% | 82.1% | 67.6% | Long-term stability, 1 month, -20°C Accuracy [%] (validation standard ULOV): 89.6%; Long-term stability, 1 month, -80°C Accuracy [%] (validation standard ULOV): 89.9%; Long-term stability, 2 month, -20°C Accuracy [%] (validation standard ULOV): 98.1%; Long-term stability, 2 month, -80°C Accuracy [%] (validation standard ULOV): 99.4%; Long-term stability, 3 month, -20°C Accuracy [%] (validation standard ULOV): 87.5%; Long-term stability, 3 month, -80°C Accuracy [%] (validation standard ULOV): 100.2%; Long-term stability, 6 weeks, 4°C, without daylight Accuracy [%] (validation standard ULOV): 79.4% |
